Experimental data published in ChEMBL document CHEMBL5725333, “Fumagillol heterocyclic compounds and methods of making and using same” (2017).

Target: Methionine aminopeptidase 2 (Homo sapiens, UniProt P50579)
Assay: 10 mM stock solutions of compounds were prepared in 100% DMSO and further diluted in 100% DMSO required concentration to 1 mM stocks. The stock compound solutions and DMSO vehicle controls were diluted to target final compound concentrations using assay buffer to a final concentration of 50 mM HEPES containing 100 mM NaCl, pH adjusted to 7.5. The MAS peptide was formulated to a 7.5 mM stock in distilled water and prior to use further diluted 1:4. […] 40 μl of enzyme was mixed with 100 μl of MnCl2 then further diluted in assay buffer to a final concentration of 16 μg/ml. To test for compound effect on MetAP2 enzyme activity, 5 μl of test compound, 10 μl of MAS substrate/amino acid oxidase mixture, 10 μl of MetAP2 was added to test wells in a 384 well black plate with blank wells containing no enzyme, replaced with 10 μl of assay buffer. All compounds were tested in duplicate on two occasions on the same day. […] The plate was sealed with a TopSeal A cover and mixed briefly on an orbital mixer at 900 rpm. The plate was incubated for a further 25 minutes at 25° C. A 5× stock of Amplex buffer was prepared (0.25M sodium phosphate, pH 7.4) and stored at 4° C. […] 25 μl detection reagent was added to each well of the test plate, which was re-sealed and mixed briefly on an orbital shaker.

Chain of Methionine aminopeptidase 2 (P50579 whole entry): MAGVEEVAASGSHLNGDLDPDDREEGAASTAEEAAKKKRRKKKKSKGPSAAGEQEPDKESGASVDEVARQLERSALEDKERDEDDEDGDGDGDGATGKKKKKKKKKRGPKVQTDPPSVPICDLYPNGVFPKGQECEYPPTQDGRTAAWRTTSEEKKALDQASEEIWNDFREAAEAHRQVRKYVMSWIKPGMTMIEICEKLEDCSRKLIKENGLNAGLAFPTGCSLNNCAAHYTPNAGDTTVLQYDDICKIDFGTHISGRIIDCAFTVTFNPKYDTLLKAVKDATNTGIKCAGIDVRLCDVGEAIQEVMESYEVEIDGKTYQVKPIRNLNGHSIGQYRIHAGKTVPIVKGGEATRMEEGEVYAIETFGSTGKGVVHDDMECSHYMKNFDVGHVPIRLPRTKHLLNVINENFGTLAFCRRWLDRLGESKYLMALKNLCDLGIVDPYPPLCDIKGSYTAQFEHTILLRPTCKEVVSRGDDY

SMILES	IC50 [µM]
CO[C@@H]1[C@H](OC(=O)N2CC(CCN3CCCC3)C2)CC[C@]2(CO2)[C@H]1[C@@]1(C)O[C@@H]1CC=C(C)C	< 0.05
CCN(CC)CCNC(=O)OCC1CN(C(=O)O[C@@H]2CC[C@]3(CO3)[C@@H]([C@@]3(C)O[C@@H]3CC=C(C)C)[C@@H]2OC)C1	< 0.05
